One may read the IC50 as the concentration that gives 50% inhibition.

Activity calls are given as the source filed them.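 The calls were made as follows: active = compounds blocking the small tyrosine phosphatase LMPTP with an IC50 of 20 micromolar or lower; inactive = the rest.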 A value given as a limit tells only on which side of the number the result lay.

Low molecular weight phosphotyrosine protein phosphatase (Homo sapiens), sequence (P24666 whole entry, looked up): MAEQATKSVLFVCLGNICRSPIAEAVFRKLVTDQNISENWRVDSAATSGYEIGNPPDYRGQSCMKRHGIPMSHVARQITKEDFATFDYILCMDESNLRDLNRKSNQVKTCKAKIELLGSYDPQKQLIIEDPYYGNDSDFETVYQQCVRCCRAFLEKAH

This assay concerns the target Low molecular weight phosphotyrosine protein phosphatase (Homo sapiens) (UniProt P24666). The assay is described as follows: LMPTP-A phosphatase inhibitors, analogs, SAR follow-up, orthogonal assay, biochemical, absorbance (AID 686963). To be noted: recombinant LMPTP-A, pNPP absorbance, 50 min.
On to `Clc1cccc(Cl)c1Cn1cnc(=NCc2ccco2)c2[nH]cnc21`, for which the IC50 is 11.6 µM.

Regarding `CC(C)OCCCNc1nc(-c2ccccc2)nc2ccccc12`, the IC50 result is “inactive”.

`O=C(OCCNc1nc(-c2ccccc2)nc2ccccc12)c1ccncc1`: the IC50 result is “inactive”.

As for `Cc1ccc(-c2nc(NCc3cccnc3)c3ccccc3n2)cc1`, the IC50 entry was “inactive”.

Regarding `O=C(OCCNc1nc(-c2ccccc2)nc2ccccc12)c1cccnc1`, the IC50 result was “inactive”.

Consider `Fc1ccccc1-c1nc(NC2CCCC2)c2ccccc2n1`, for which the IC50 entry is “inactive”.

Turning to `COc1ccccc1CNc1ncnc2ccsc12`, the IC50 is > 80 µM (inactive).

Take `Cc1c(CCC(=O)O)c(=O)oc2c(C)c(OCc3ccccc3Cl)ccc12`: the IC50 is 17.5 µM.

Take `c1ccc(-c2cc(NCCN3CCCCC3)c3ccccc3n2)cc1`: the IC50 is 4.97 µM.

With `c1ccc(-c2nc(NCCCn3ccnc3)c3ccccc3n2)cc1`, the IC50 result was “inactive”.

On to `CCc1nc(N)nc(N)c1-c1ccc(Cl)cc1`, for which the IC50 result is “inactive”.

`Cc1ccc(-c2nc(NCCN3CCOCC3)c3ccccc3n2)cc1`: the IC50 result is “inactive”.

`c1ccc(-c2nc(NCc3cccnc3)c3ccccc3n2)cc1`: the IC50 entry is “inactive”.

For the compound `Fc1ccccc1-c1nc(NCCCN2CCOCC2)c2ccccc2n1`, the IC50 result is “inactive”.

For the compound `c1ccc(-c2cc(N3CCCCC3)c3ccccc3n2)cc1`, the IC50 result is “inactive”.

Take `Nc1nc(N)c(Cc2ccc(Cl)cc2Cl)c(N)n1`: the IC50 was 13.5 µM.

For `Cc1cccc(-c2nc(NCCCN3CCOCC3)c3ccccc3n2)c1`, the IC50 entry was “inactive”.

Source of the values: PubChem BioAssay AID686963 (Sanford-Burnham Center for Chemical Genomics, 2013).
